Data reported in the supplement of paper PMC11208160.

Test: recombinant UMI read abundance after kanamycin selection (control-corrected) (log10(CPM+1)); higher = more efficient recombination; extreme values may be limits of the assay; sequences stand for … in AGTGCAGAGAAAATCGGCCAGTTTTCTCTGCCTGCAGTCCGCATGCCGTGGGACCCCTTGGGTTCTAACCTGTTGCCTAGATTTATGCAGCGGACTGCCTTTCTCCCAAAGTGATAAACCGG…AGGTTGGTTTCACT; site = the 11-nt donor
Procedure: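 Pooled E. coli donor-specificity screen for the IS621 bridge recombinase. Each library member carries a reprogrammed 11-nt donor and a full-length LE bridge RNA expressed in cis from the natural promoter, with a paired donor-binding loop (8-nt LDG + 4-nt RDG) and a target-binding loop fixed to T5. It is co-electroporated with a T5 target plasmid; recombinase is induced with 0.07 mM IPTG and recombinants are selected on kanamycin. UMIs are counted as CPM, averaged over two biological replicates and corrected by the unselected control. Molecule = full bridge RNA written as DNA, built from the T5 scaffold: LDG = donor specificity nt 1-8, RDG = reverse complement of nt 8-11.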
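Also: IS621 bridge recombinase in Escherichia coli cells against a fixed T5 target plasmid.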

Sequence | recombinant UMI read abundance (log10)
AATTATGCATGGACCGGTTTTCCCGGTAATCCGTATTTGGA (site AGTTATGCTTC) | 1.09
AATTATGCATGGACCGGTTTTCCCGGTAATCCGTATTTGGA (site ATTTATGCTTC) | 1.25
AATTATGCATGGACCGGTTTTCCCGGTAATCCGTATTTGGA (site CATTATGCTTC) | 1.51
AATTATGCATGGACCGGTTTTCCCGGTAATCCGTATTTGGA (site GATTATGCTTC) | 0.983
AATTATGCATGGACCGGTTTTCCCGGTAATCCGTATTTGGA (site TATTATGCTTC) | 0.862
AATTATGCATGGACCGGTTTTCCCGGTAATCCGTATTTGGT (site AATTATGCTAC) | 2.02
AATTATGCATGGACCGGTTTTCCCGGTAATCCGTATTTGGT (site AATTATGCTCC) | 0.00684
AATTATGCATGGACCGGTTTTCCCGGTAATCCGTATTTGGT (site AATTATGCTGC) | 0
AATTATGCATGGACCGGTTTTCCCGGTAATCCGTATTTGGT (site AATTATGCTTC) | 0.0116
AATTGCTCATGGACCGGTTTTCCCGGTAATCCGTATTTGCC (site AATTGCTCTGG) | 2.51
AATTGGGCATGGACCGGTTTTCCCGGTAATCCGTATTTGAA (site AATTGGGCTTT) | 0.399
AATTTGTCATGGACCGGTTTTCCCGGTAATCCGTATTTGAC (site AATATGTCTGT) | 0
AATTTGTCATGGACCGGTTTTCCCGGTAATCCGTATTTGAC (site AATCTGTCTGT) | 0
AATTTGTCATGGACCGGTTTTCCCGGTAATCCGTATTTGAC (site AATGTGTCTGT) | 0
AATTTGTCATGGACCGGTTTTCCCGGTAATCCGTATTTGAC (site AATTTGTCTGT) | 0
ACAAAATCATGGACCGGTTTTCCCGGTAATCCGTATTTGCA (site ACAAAATCTTG) | 1.3
ACAAAATCATGGACCGGTTTTCCCGGTAATCCGTATTTGCA (site ACAGTATCTTG) | 1.45
ACAAAGGCATGGACCGGTTTTCCCGGTAATCCGTATTTGCT (site AAAAAGGCTAG) | 0
ACAAAGGCATGGACCGGTTTTCCCGGTAATCCGTATTTGCT (site ACAAAGGCTAG) | 2.57
ACAAAGGCATGGACCGGTTTTCCCGGTAATCCGTATTTGCT (site AGAAAGGCTAG) | 0
ACAAAGGCATGGACCGGTTTTCCCGGTAATCCGTATTTGCT (site ATAAAGGCTAG) | 1.17
ACAACTACATGGACCGGTTTTCCCGGTAATCCGTATTTGTG (site ACAACTACTCA) | 0.844
ACAACTACATGGACCGGTTTTCCCGGTAATCCGTATTTGTG (site ACACCTACTCA) | 0.0441
ACAACTACATGGACCGGTTTTCCCGGTAATCCGTATTTGTG (site ACAGCTACTCA) | 0.0923

Sequence | recombinant UMI read abundance (log10)
ACAACTACATGGACCGGTTTTCCCGGTAATCCGTATTTGTG (site ACATCTACTCA) | 0.146
ACAAGAACATGGACCGGTTTTCCCGGTAATCCGTATTTGAG (site ACAAGAACTCT) | 2.72
ACAAGAACATGGACCGGTTTTCCCGGTAATCCGTATTTGAG (site ACCAGAACTCT) | 0.645
ACAAGAACATGGACCGGTTTTCCCGGTAATCCGTATTTGAG (site ACGAGAACTCT) | 1.41
ACAAGAACATGGACCGGTTTTCCCGGTAATCCGTATTTGAG (site ACTAGAACTCT) | 0.755
ACAAGGCCATGGACCGGTTTTCCCGGTAATCCGTATTTGAC (site AAAAGGCCTGT) | 0
ACAAGGCCATGGACCGGTTTTCCCGGTAATCCGTATTTGAC (site ACAAGGCCTGT) | 0.512
ACAAGGCCATGGACCGGTTTTCCCGGTAATCCGTATTTGAC (site AGAAGGCCTGT) | 0
ACAAGGCCATGGACCGGTTTTCCCGGTAATCCGTATTTGAC (site ATAAGGCCTGT) | 1.34
ACAAGTGCATGGACCGGTTTTCCCGGTAATCCGTATTTGGT (site ACAAGTGCTAC) | 2.04
ACAAGTGCATGGACCGGTTTTCCCGGTAATCCGTATTTGGT (site ACCAGTGCTAC) | 0.897
ACAAGTGCATGGACCGGTTTTCCCGGTAATCCGTATTTGGT (site ACGAGTGCTAC) | 1.09
ACAAGTGCATGGACCGGTTTTCCCGGTAATCCGTATTTGGT (site ACTAGTGCTAC) | 1.16
ACAATATCATGGACCGGTTTTCCCGGTAATCCGTATTTGCT (site ACAATATCTAG) | 2.64
ACAATATCATGGACCGGTTTTCCCGGTAATCCGTATTTGCT (site ACAGTATCTTG) | 0.278
ACAATGGCATGGACCGGTTTTCCCGGTAATCCGTATTTGAT (site ACAATGGCTAT) | 2.3
ACACAGCCATGGACCGGTTTTCCCGGTAATCCGTATTTGAC (site ACACAACCTGT) | 0
ACACAGCCATGGACCGGTTTTCCCGGTAATCCGTATTTGAC (site ACACACCCTGT) | 1.68
ACACAGCCATGGACCGGTTTTCCCGGTAATCCGTATTTGAC (site ACACAGCCTGT) | 1.05
ACACAGCCATGGACCGGTTTTCCCGGTAATCCGTATTTGAC (site ACACATCCTGT) | 0.0116
ACACAGCCATGGACCGGTTTTCCCGGTAATCCGTATTTGTG (site ACACAGCCTCA) | 0.606
ACACCAACATGGACCGGTTTTCCCGGTAATCCGTATTTGTC (site ACACAAACTGA) | 0
ACACCAACATGGACCGGTTTTCCCGGTAATCCGTATTTGTC (site ACACCAACTGA) | 1.62
ACACCAACATGGACCGGTTTTCCCGGTAATCCGTATTTGTC (site ACACGAACTGA) | 0

Sequence | recombinant UMI read abundance (log10)
ACACCAACATGGACCGGTTTTCCCGGTAATCCGTATTTGTC (site ACACTAACTGA) | 0
ACACCACCATGGACCGGTTTTCCCGGTAATCCGTATTTGAT (site ACACCACCTAT) | 0.00417
ACACCTCCATGGACCGGTTTTCCCGGTAATCCGTATTTGAC (site ACACATCCTGT) | 0
ACACCTCCATGGACCGGTTTTCCCGGTAATCCGTATTTGAC (site ACACCTCCTGT) | 1.93
ACACCTCCATGGACCGGTTTTCCCGGTAATCCGTATTTGAC (site ACACGTCCTGT) | 0
ACACCTCCATGGACCGGTTTTCCCGGTAATCCGTATTTGAC (site ACACTTCCTGT) | 0
ACACGAACATGGACCGGTTTTCCCGGTAATCCGTATTTGAC (site ACACGAACTGA) | 1.64
ACACGAACATGGACCGGTTTTCCCGGTAATCCGTATTTGAC (site ACACGAACTGC) | 0
ACACGAACATGGACCGGTTTTCCCGGTAATCCGTATTTGAC (site ACACGAACTGG) | 1.33
ACACGAACATGGACCGGTTTTCCCGGTAATCCGTATTTGAC (site ACACGAACTGT) | 2.62
ACACGAACATGGACCGGTTTTCCCGGTAATCCGTATTTGTG (site ACACGAACTAA) | 0.269
ACACGAACATGGACCGGTTTTCCCGGTAATCCGTATTTGTG (site ACACGAACTCA) | 1.91
ACACGAACATGGACCGGTTTTCCCGGTAATCCGTATTTGTG (site ACACGAACTGA) | 0
ACACGAACATGGACCGGTTTTCCCGGTAATCCGTATTTGTG (site ACACGAACTTA) | 0.766
ACACGACCATGGACCGGTTTTCCCGGTAATCCGTATTTGTC (site ACACGAACTGA) | 0.0114
ACACGACCATGGACCGGTTTTCCCGGTAATCCGTATTTGTC (site ACACGACCTGA) | 0
ACACGACCATGGACCGGTTTTCCCGGTAATCCGTATTTGTC (site ACACGAGCTGA) | 0
ACACGACCATGGACCGGTTTTCCCGGTAATCCGTATTTGTC (site ACACGATCTGA) | 1.22
ACACGCACATGGACCGGTTTTCCCGGTAATCCGTATTTGTC (site ACACGAACTGA) | 1.62
ACACGCACATGGACCGGTTTTCCCGGTAATCCGTATTTGTC (site ACACGCACTGA) | 2.85
ACACGCACATGGACCGGTTTTCCCGGTAATCCGTATTTGTC (site ACACGGACTGA) | 0
ACACGCACATGGACCGGTTTTCCCGGTAATCCGTATTTGTC (site ACACGTACTGA) | 0.934
ACACGGACATGGACCGGTTTTCCCGGTAATCCGTATTTGTC (site ACACGAACTGA) | 0
ACACGGACATGGACCGGTTTTCCCGGTAATCCGTATTTGTC (site ACACGCACTGA) | 0
